Square brackets hold non-standard residues; d marks the D form. Ends that are not written are not given here. Sta = CC(C)C[C@H](N)[C@@H](O)CC(=O)O
Tests used:
β-secretase [1] = target: T1, β-secretase (Homo sapiens, UniProt P56817); test: QTL/QTP assay for β-secretase activity with quencher-tether-biotin peptide substrates; assay type: biochemical
Experimental: In a 384-well plate, […] of β-secretase peptide substrate solution of appropriate concentration was mixed with a given amount of β-secretase enzyme in a total volume of […] in assay buffer. In the same plate, a control experiment was also set up where the same amount of peptide was taken in assay buffer but no enzyme was added. The experiments were usually done in triplicate sets for both sample and control. After a given time period of incubation at CRT, the fluorescent polymer in polymer buffer was added to the sample and control wells. The well plate was shaken inside the plate reader and the fluorescence intensity of the samples was measured. The difference in relative fluorescence units between sample and control wells is a measure of enzyme activity.
In the above example, the polymer can include any of the following: • A. Biotin binding protein (BBP) functionalized polystyrene latex carboxylic acid microspheres that are coated with conjugated polymer 1; • B. Solution complex of BBP and biotinylated polymer 2; • C. Microspheres as in A that are doped with a small amount of Phycoerythrin or related fluorescent protein conjugated to biotin; • D. Solution Sensor as in B doped with a small amount of Phycoerythrin or related fluorescent protein conjugated to biotin; and • E. Covalent conjugate of Phycoetythrin or another fluorescent protein and BBP. […]
The assay performance was further improved when the polymer microsphere sample A was doped with a small amount of Biotin-R-Phycoerythrin (Biotin-R-PE) conjugate. In one experiment, BSEC-1, BSEC-3 (a,b) (same peptide substrate synthesized by different vendors) and BSEC-4 were all exposed to β-secretase enzyme under identical conditions to compare their efficiencies in the assay. Polymer sample C was prepared fresh just before the start of experiment by mixing together Polymer A and Biotin-R-PE in a ratio designed to provide 5×10^6 microspheres doped with 100 fmol of Biotin-R-PE per well in a volume of 10 μL.
To 5 μL of a 300 nM solution of each peptide substrate in assay buffer in separate wells was added 10 ng of β-secretase enzyme in 5 μL of assay buffer to start the reactions. Each reaction was performed in triplicate. Controls were performed for each peptide without enzyme in quadruplicate. The samples were incubated at CRT for 60 minutes. At the end of the incubation period, the Biotin-R-PE doped polymer C was added to each well. The plate was shaken in the plate reader for 60 seconds, then probed for emission at 576 nm by exciting at 440 nm and using 475 nm cut-off filter. BSEC-1 gave RFU values of 6270±196 for control and 9645±152 for sample. BSEC-3a gave RFUs of 7656±20 for control and 15022±743 for sample while BSEC-3b gave RFUs of 6054±41 and 12265±913 for control and sample respectively. In comparison, BSEC-4 gave values of 9207±364 and 9732±319 for control and sample respectively.
The polymer solution sensor B was prepared by mixing together 56.5 nmol of Avidin (Biotin binding protein, BBP) and 848 nmol of biotinylated PPE polymer 2 in a total volume of 11.3 μL and incubating at CRT for 24 hours. The polymer and the BBP combine with each other through the biotin-avidin interaction to form stable entities. The solution sensor thus prepared was diluted appropriately with polymer buffer at the beginning of each experiment.
To 5 μL of a 400 nM solution of BSEC-1 in assay buffer in a 384 well plate was added 30 ng of β-secretase dissolved in 5 μL of assay buffer. The mixture was made in triplicate and incubated for 30 minutes at CRT. The control wells contained only peptide and no enzyme. After incubation, a 100-fold dilution of the above solution sensor was added at 20 μL to each well. The plate was shaken inside the microplate reader and the wells were probed by exciting the polymer at 440 nm and measuring emission intensity at 530 run. The control wells gave an average RFU value of 5400±200 and the sample wells containing enzyme gave RFU of 8350±200. […]

[2] = target: Streptavidin-B-Phycoerythrin conjugate (SAv-BPE) (Streptomyces avidinii, UniProt P22629); test: Superquenching of fluorescent conjugate by β-secretase peptide substrate (Stern-Volmer); details: 2.5 nM solution of the fluorescent conjugate SAv-BPE
From the text: In another embodiment of the invention, the fluorescent polymer is a biological ensemble comprising phycoerythrin or phycobilisome.

Caspase-3 enzyme = Caspase-3 enzyme (Homo sapiens, UniProt P42574); details: Example 10, peptide substrate with Caspase-3 at CRT; control without enzyme remains unchanged
Experimental: To a known amount of the peptide substrate represented by SEQ ID NO:8 in assay buffer is added a sample solution of Caspase-3 enzyme in one well of a 384-well plate. In another well, the peptide substrate is taken without enzyme. The plate is incubated at CRT and the sample and control wells measured for fluorescence intensity at various time periods. […] An assay of this type is represented in FIG. 3.

β-secretase [3] = target: T1, β-secretase; test: QTL assay for inhibition of β-secretase activity by a known inhibitor; assay type: biochemical; details: for delta-over-control RFU: BSEC-1 substrate, 30 ng β-secretase, 15 minutes, Polymer A, without inhibitor 4468±85
From the text: In another embodiment, the QTL assay is capable of detecting the inhibition of β-secretase activity in unknown samples. Whereas, in the absence of any inhibitory substance in the reaction mixture, the enzyme would cleave a large portion of the reactive tether present, in the presence of an effective inhibitor, the enzyme loses most of its activity. The QTL assay provides evidence of partial or total inhibition of enzyme activity through a lowering or complete lack of “fluorescence recovery” in such samples.
The structure of the statine-derived peptide inhibitor of β-secretase is given below:
STA-200 is a well-known inhibitor of β-secretase activity. To 2.5 μL of an 800 nM solution of BSEC-1 in assay buffer was added 30 ng of β-secretase and the volume made up to a total of 10 μL with assay buffer. In another well, 2.5 μL of 800 nM BSEC-1 solution was incubated with a pre-mixed solution of 2.5 μL of STA-200 solution and 30 ng of β-secretase so that the final volume is again 10 μL. Two control reactions were also set up in separate wells where one had only peptide in assay buffer while the other had peptide and inhibitor incubating in assay buffer. All samples were incubated at CRT for 15 minutes followed by the addition to each of 19.2 μL of Polymer A suspension (1×10^7 microspheres) in polymer buffer. The mixtures were then probed for emission at 530 nm by exciting them at 440 nm and using 475 nm cut-off filter. The mixture of peptide and enzyme alone gave a delta-over-control RFU of 4468±85. In comparison, a mixture of peptide, enzyme and 60 nM STA-200 (600 fmol) gave a delta-over-control RFU of 2746±241 while a mixture containing 250 nM STA-200 (2.5 pmol) gave a corresponding value of only 865±178.

[4] = Example 7: 300 nM substrate, 20 ng β-secretase, 30 minutes, SAv-BPE (Polymer E), ex 490 nm/em 576 nm
[5] = Example 7: 300 nM substrate, no enzyme, 30 minutes, SAv-BPE (Polymer E), ex 490 nm/em 576 nm
[6] = Example 3: 300 nM substrate, 10 ng β-secretase, 60 minutes at CRT, Biotin-R-PE doped polymer C, ex 440 nm/em 576 nm
[7] = Example 3: 300 nM substrate, no enzyme, 60 minutes at CRT, Biotin-R-PE doped polymer C, ex 440 nm/em 576 nm

T1 sequence (P56817 46-501): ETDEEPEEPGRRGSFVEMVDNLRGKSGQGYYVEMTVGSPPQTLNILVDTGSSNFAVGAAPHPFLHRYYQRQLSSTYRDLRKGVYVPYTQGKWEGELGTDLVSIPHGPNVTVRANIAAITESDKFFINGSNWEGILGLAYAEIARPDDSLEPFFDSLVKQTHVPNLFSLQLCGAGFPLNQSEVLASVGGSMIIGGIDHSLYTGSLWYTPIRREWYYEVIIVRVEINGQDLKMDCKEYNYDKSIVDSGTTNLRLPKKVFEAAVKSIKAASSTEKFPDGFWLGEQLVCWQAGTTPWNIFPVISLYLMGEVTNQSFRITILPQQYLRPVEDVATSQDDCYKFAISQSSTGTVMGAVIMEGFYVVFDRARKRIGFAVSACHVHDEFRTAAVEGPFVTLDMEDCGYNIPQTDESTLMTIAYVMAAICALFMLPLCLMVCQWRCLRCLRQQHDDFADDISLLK
Streptavidin-B-Phycoerythrin conjugate (SAv-BPE), sequence (P22629 25-183): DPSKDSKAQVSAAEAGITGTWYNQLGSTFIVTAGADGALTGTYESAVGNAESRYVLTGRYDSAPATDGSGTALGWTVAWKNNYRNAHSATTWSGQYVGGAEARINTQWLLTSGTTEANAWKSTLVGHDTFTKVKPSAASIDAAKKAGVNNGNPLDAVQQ
Streptavidin-B-Phycoerythrin conjugate (SAv-BPE), sequence (P11392 whole entry partner): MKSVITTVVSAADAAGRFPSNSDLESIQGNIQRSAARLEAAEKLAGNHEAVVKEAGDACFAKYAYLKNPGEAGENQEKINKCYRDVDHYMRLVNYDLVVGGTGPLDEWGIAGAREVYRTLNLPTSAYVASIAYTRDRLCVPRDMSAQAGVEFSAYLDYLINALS
Streptavidin-B-Phycoerythrin conjugate (SAv-BPE), sequence (P11393 whole entry partner): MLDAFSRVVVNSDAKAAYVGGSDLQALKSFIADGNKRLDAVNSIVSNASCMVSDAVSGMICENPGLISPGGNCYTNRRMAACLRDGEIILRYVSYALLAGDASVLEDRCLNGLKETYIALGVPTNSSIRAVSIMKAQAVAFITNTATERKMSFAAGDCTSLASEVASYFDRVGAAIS
Caspase-3 enzyme, sequence (P42574 29-175 limits assumed, species assumed): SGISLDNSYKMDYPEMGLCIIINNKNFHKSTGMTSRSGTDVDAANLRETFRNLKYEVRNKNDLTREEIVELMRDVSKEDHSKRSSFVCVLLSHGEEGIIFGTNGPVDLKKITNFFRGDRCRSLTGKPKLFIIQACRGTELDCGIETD
Caspase-3 enzyme, sequence (P42574 176-277 limits assumed, species assumed): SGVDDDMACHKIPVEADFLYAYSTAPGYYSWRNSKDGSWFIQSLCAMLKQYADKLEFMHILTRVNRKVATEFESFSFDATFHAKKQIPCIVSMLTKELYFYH

(AZO)-TEEISEVNLDAEFK-(Nε-Biotin) [BSEC-3]
RFU of sample (β-secretase [1]; Example 2: 400 nM substrate, 60 ng β-secretase, ten minutes at CRT, polymer A, ex 440 nm/em 530 nm): 10996±424 RFU | RFU of control (β-secretase [1]; Example 2: 400 nM substrate, no enzyme, ten minutes at CRT, polymer A, ex 440 nm/em 530 nm): 8111±707 RFU | RFU of sample (β-secretase [1]; Example 3: 300 nM substrate, 10 ng β-secretase, 60 minutes at CRT, Biotin-R-PE doped polymer C, ex 440 nm/em 576 nm, listed as BSEC-3a): 15022±743 RFU | RFU of sample (β-secretase [1]; Example 3: 300 nM substrate, 10 ng β-secretase, 60 minutes at CRT, Biotin-R-PE doped polymer C, ex 440 nm/em 576 nm, listed as BSEC-3b): 12265±913 RFU | RFU of control (β-secretase [1]; Example 3: 300 nM substrate, no enzyme, 60 minutes at CRT, Biotin-R-PE doped polymer C, ex 440 nm/em 576 nm, listed as BSEC-3a): 7656±20 RFU | RFU of control (β-secretase [1]; Example 3: 300 nM substrate, no enzyme, 60 minutes at CRT, Biotin-R-PE doped polymer C, ex 440 nm/em 576 nm, listed as BSEC-3b): 6054±41 RFU | average RFU of sample wells (β-secretase [1]; Example 6: 300 nM substrate, 30 ng β-secretase, 30 minutes at CRT, doped solution sensor D, ex 440 nm/em 576 nm): 14500±200 RFU | average RFU of control wells (β-secretase [1]; Example 6: 300 nM substrate, no enzyme, 30 minutes at CRT, doped solution sensor D, ex 440 nm/em 576 nm): 5200±100 RFU | average RFU of enzyme wells (β-secretase [1]; [4]): 18032±228 RFU | average RFU of control wells (β-secretase [1]; [5]): 11639±335 RFU

(AZO)-TKKISEVNLDAEFRK-(Nε-Biotin) [BSEC-4]
RFU of sample (β-secretase [1]; [6]): 9732±319 RFU | RFU of control (β-secretase [1]; [7]): 9207±364 RFU

(QSY-7)-TEEISEVNLDAEFK-(Nε-Biotin) [BSEC-1]
Stem-Volmer quenching constant [2]: ~1e+08 M⁻¹ | relative fluorescence units (RFU) of sample (β-secretase [1]; Example 1: 400 nM substrate, 20 ng β-secretase, 30 min at CRT, polymer A, ex 420 nm/em 530 nm): 9045±109 RFU | relative fluorescence units (RFU) of control (β-secretase [1]; Example 1: 400 nM substrate, no enzyme, 30 min at CRT, polymer A, ex 420 nm/em 530 nm): 5529±286 RFU | RFU of sample (β-secretase [1]; [6]): 9645±152 RFU | RFU of control (β-secretase [1]; [7]): 6270±196 RFU | RFU of sample wells containing enzyme (β-secretase [1]; Example 5: 400 nM substrate, 30 ng β-secretase, 30 minutes at CRT, solution sensor polymer B, ex 440 nm/em 530 nm): 8350±200 RFU | average RFU of control wells (β-secretase [1]; Example 5: 400 nM substrate, no enzyme, 30 minutes at CRT, solution sensor polymer B, ex 440 nm/em 530 nm): 5400±200 RFU | average RFU of enzyme wells (β-secretase [1]; [4]): 11828±556 RFU | average RFU of control wells (β-secretase [1]; [5]): 7671±286 RFU | delta-over-control RFU, peptide and enzyme alone (β-secretase [1]; Example 8: 2.5 μL of 800 nM substrate, 30 ng β-secretase, no inhibitor, 15 minutes at CRT, Polymer A, ex 440 nm/em 530 nm): 4468±85 RFU

D-E-V-D-Cyanine [SEQ ID NO:8]
fluorescence intensity of sample with increasing time (Caspase-3 enzyme): increase in fluorescence

KTEISEVN-(Sta)-VAEF-OH (KTEISEVN[Sta]VAEF-OH; N-terminus assumed; SMILES CC[C@H](C)[C@H](NC(=O)[C@H](CCC(=O)O)NC(=O)[C@@H](NC(=O)[C@@H](N)CCCCN)[C@@H](C)O)C(=O)N[C@@H](CO)C(=O)N[C@@H](CCC(=O)O)C(=O)N[C@H](C(=O)N[C@@H](CC(N)=O)C(=O)N[C@@H](CC(C)C)[C@@H](O)CC(=O)N[C@H](C(=O)N[C@@H](C)C(=O)N[C@@H](CCC(=O)O)C(=O)N[C@@H](Cc1ccccc1)C(=O)O)C(C)C)C(C)C) [STA-200]
delta-over-control RFU (β-secretase [3]; 60 nM STA-200 (600 fmol)): 2746±241 RFU | delta-over-control RFU (β-secretase [3]; 250 nM STA-200 (2.5 pmol)): 865±178 RFU | IC50 value (β-secretase [3]; sample incubated for fifteen minutes): in the range of nanomolar concentrations
